Results on 20 molecules are retold here after PubChem BioAssay AID248 (DTP/NCI, 2004).

Values joined by “and” are separate entries in the source; they are usually repeats but may differ in a detail not shown here. Equal entries are not always repeated. Toxic doses and inconclusive results are not listed.

In this experiment the test system is L1210 leukemia ip in BDF1 mice, survival T/C. The experiment is described as follows: NCI In Vivo Anticancer Drug Screen. Data for tumor model L1210 Leukemia (intraperitoneal) in B6D2F1 (BDF1) mice. To be noted: endpoint: mean survival time, higher = longer survival. The method in brief:
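Value reflects the ratio of survival in compound-treated mice to survival in vehicle-treated controls, with both groups carrying the same transplanted tumor.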

The mark [1] stands for this setting: dose: 100.0 mg/kg/injection, schedule: Q04DX003 (ip), vehicle: saline with Tween-80.
Setting [2] is: dose: 200.0 mg/kg/injection, schedule: Q04DX003 (ip), vehicle: saline with Tween-80.
Where [3] appears, read: dose: 400.0 mg/kg/injection, schedule: Q04DX003 (ip), vehicle: saline with Tween-80.
The mark [4] stands for this setting: dose: 100.0 mg/kg/injection, schedule: Q01DX001 (ip), vehicle: saline.
[5] abbreviates: dose: 200.0 mg/kg/injection, schedule: Q01DX001 (ip), vehicle: saline.
Where [6] appears, read: dose: 100.0 mg/kg/injection, schedule: Q04DX003 (ip), vehicle: Klucel (hydroxypropylcellulose) (HPC).
[7] abbreviates: dose: 200.0 mg/kg/injection, schedule: Q04DX003 (ip), vehicle: Klucel (hydroxypropylcellulose) (HPC).
The mark [8] stands for this setting: dose: 400.0 mg/kg/injection, schedule: Q04DX003 (ip), vehicle: Klucel (hydroxypropylcellulose) (HPC).
The mark [9] stands for this setting: dose: 400.0 mg/kg/injection, schedule: Q01DX001 (ip), vehicle: saline.
[10] abbreviates: dose: 100.0 mg/kg/injection, schedule: Q04DX002 (ip), vehicle: saline with Tween-80.
The mark [11] stands for this setting: dose: 200.0 mg/kg/injection, schedule: Q04DX002 (ip), vehicle: saline with Tween-80.
[12] abbreviates: dose: 100.0 mg/kg/injection, schedule: Q01DX009 (ip), vehicle: saline with Tween-80.
[13] abbreviates: dose: 200.0 mg/kg/injection, schedule: Q01DX009 (ip), vehicle: saline with Tween-80.
The mark [14] stands for this setting: dose: 400.0 mg/kg/injection, schedule: Q01DX009 (ip), vehicle: saline with Tween-80.

Turning to `Cc1ccc(NC(=O)Oc2ccc3ccccc3c2)c([N+](=O)[O-])c1`, the T/C runs as follows: under setting [1], 99 % of control; under setting [2], 99 % of control; under setting [3], 89 % of control.
For `CCCCCCCNC(=O)CI`, the T/C reads like this: under setting [4], 103 % of control; under setting [5], 111 % of control.
As for `CCOC(=O)C1(C)C(=O)CC2c3nc4ccccc4cc3CN2C1=O` (stereo not given), the T/C (dose: 100.0 mg/kg/injection, schedule: Q01DX009 (ip), vehicle: Klucel (hydroxypropylcellulose) (HPC)) was 109 % of control; the T/C under setting [6] is 107 % of control; the T/C (dose: 200.0 mg/kg/injection, schedule: Q01DX009 (ip), vehicle: Klucel (hydroxypropylcellulose) (HPC)) is 113 % of control; the T/C under setting [7] was 100 % of control; the T/C (dose: 400.0 mg/kg/injection, schedule: Q01DX009 (ip), vehicle: Klucel (hydroxypropylcellulose) (HPC)) is 92 % of control; the T/C under setting [8] is 97 % of control.
Turning to `CNC(=O)OC1CCCCC1CN(C)C` (stereo not given), the T/C was 91 % of control (dose: 55.0 mg/kg/injection, schedule: Q01DX Z (ip), vehicle: saline); 109 % of control (dose: 83.0 mg/kg/injection, schedule: Q01DX Z (ip), vehicle: saline); 113 % of control (dose: 125.0 mg/kg/injection, schedule: Q01DX Z (ip), vehicle: saline).
As for `CC1(C)CC1(Br)c1ccccc1` (stereo not given), the T/C is 96 % of control under setting [4], 96 % of control under setting [5] and 101 % of control under setting [9].
On to `CCCCOC(=O)c1ccccn1`, for which the T/C was 99 % of control under setting [1] and 94 % of control under setting [2].
Consider `CC(=O)Nc1cccc(OCCCOc2cccc(C#N)c2)c1`, for which the T/C was 96 % of control under setting [6], 101 % of control under setting [7] and 98 % of control under setting [8].
Take `CCNC(=O)CS(=O)(=O)c1ccc(C)cc1`: the T/C is, setting by setting: under setting [1], 101 % of control; under setting [2], 94 % of control; under setting [3], 97 % of control.
On to `O=[N+]([O-])c1ccc(/C=N/O)s1`, for which the T/C is 95 % of control (dose: 25.0 mg/kg/injection, schedule: Q04DX002 (ip), vehicle: saline with Tween-80) and 104 % of control (dose: 50.0 mg/kg/injection, schedule: Q04DX002 (ip), vehicle: saline with Tween-80).
In the case of `O=P(O)(Oc1cccc(Cl)c1)Oc1cccc(Cl)c1`, the T/C was 115 % of control under setting [10] and 104 % of control under setting [11].
Regarding `ClC1=CC2CCC1C21CC1` (stereo not given), the T/C is 105 % of control (dose: 50.0 mg/kg/injection, schedule: Q01DX009 (ip), vehicle: saline with Tween-80); 92 % of control (dose: 100.0 mg/kg/injection, schedule: Q01DX005 (ip), vehicle: saline with Tween-80); 94 % of control under setting [12]; 87 % of control under setting [10]; 96 % of control (dose: 200.0 mg/kg/injection, schedule: Q01DX005 (ip), vehicle: saline with Tween-80); 97 % of control under setting [13]. Moreover, the T/C is 100 % of control under setting [11] and 103 % of control (dose: 400.0 mg/kg/injection, schedule: Q04DX002 (ip), vehicle: saline with Tween-80).
Turning to `O=C(N/N=C\c1cccc([N+](=O)[O-])c1)N/N=C/c1cccc([N+](=O)[O-])c1`, the T/C is, setting by setting: (dose: 6.25 mg/kg/injection, schedule: Q04DX003 (ip), vehicle: saline with Tween-80) 92 % of control; (dose: 12.5 mg/kg/injection, schedule: Q04DX003 (ip), vehicle: saline with Tween-80) 97 % of control; (dose: 25.0 mg/kg/injection, schedule: Q04DX003 (ip), vehicle: saline with Tween-80) 87 % of control.
In the case of `CN1CCCCC1CCN1c2ccccc2Sc2ccc(Br)cc21` (stereo not given), the T/C reads like this: (dose: 3.12 mg/kg/injection, schedule: Q01DX009 (ip), vehicle: saline) 105 % of control; (dose: 6.25 mg/kg/injection, schedule: Q01DX009 (ip), vehicle: saline) 100 % of control; (dose: 12.5 mg/kg/injection, schedule: Q01DX009 (ip), vehicle: saline) 101 % of control.
`Nc1n[nH]c(=O)[nH]1`: the T/C runs as follows: (dose: 44.0 mg/kg/injection, schedule: Q03HX024 (ip), vehicle: saline) 108 % of control; (dose: 67.0 mg/kg/injection, schedule: Q03HX024 (ip), vehicle: saline) 107 % of control; (dose: 100.0 mg/kg/injection, schedule: Q01DX009 (ip), vehicle: saline) 115 % of control; (dose: 100.0 mg/kg/injection, schedule: Q03HX024 (ip), vehicle: saline) 112 % of control; (dose: 177.0 mg/kg/injection, schedule: Q01DX009 (ip), vehicle: saline) 120 % of control; (dose: 200.0 mg/kg/injection, schedule: Q01DX009 (ip), vehicle: saline) 121 % of control. Moreover, the T/C was 153 % of control (dose: 225.0 mg/kg/injection, schedule: Q03HX024 (ip), vehicle: saline); 180 % of control (dose: 266.0 mg/kg/injection, schedule: Q01DX009 (ip), vehicle: saline); 104 % of control (dose: 266.0 mg/kg/injection, schedule: Q04DX003 (ip), vehicle: saline); 185 % of control (dose: 400.0 mg/kg/injection, schedule: Q01DX009 (ip), vehicle: saline); 113 % of control (dose: 400.0 mg/kg/injection, schedule: Q04DX003 (ip), vehicle: saline); 164 % of control and 186 % of control (dose: 600.0 mg/kg/injection, schedule: Q01DX009 (ip), vehicle: saline). Moreover, for the setting “dose: 600.0 mg/kg/injection, schedule: Q04DX003 (ip), vehicle: saline”, the T/C is 118 % of control.
As for `CCOC(=O)C(=O)C1CCCC1=O` (stereo not given), the T/C runs as follows: under setting [12], 102 % of control; under setting [1], 92 % of control; under setting [13], 98 % of control; under setting [2], 100 % of control; under setting [14], 96 % of control; under setting [3], 94 % of control.
`COc1cc(N=Nc2ccc([N+](=O)[O-])cc2C)ccc1N`: the T/C reads like this: (dose: 100.0 mg/kg/injection, schedule: Q01DX001 (ip), vehicle: other) 97 % of control; (dose: 200.0 mg/kg/injection, schedule: Q01DX001 (ip), vehicle: other) 97 % of control; (dose: 400.0 mg/kg/injection, schedule: Q01DX001 (ip), vehicle: other) 86 % of control.
In the case of `CCC[CH2][Pb]([CH2]CCC)([CH2]CCC)[N](C#N)C#N`, the T/C is 101 % of control (dose: 25.0 mg/kg/injection, schedule: Q04DX002 (sc), vehicle: olive oil, sesame oil, peanut oil); 101 % of control (dose: 50.0 mg/kg/injection, schedule: Q04DX002 (sc), vehicle: olive oil, sesame oil, peanut oil); 96 % of control and 97 % of control (dose: 100.0 mg/kg/injection, schedule: Q04DX002 (sc), vehicle: olive oil, sesame oil, peanut oil).
In the case of `O=C(CCCC(=O)N/N=C/c1cccc(O)c1)N/N=C\c1cccc(O)c1`, the T/C by setting is: (dose: 50.0 mg/kg/injection, schedule: Q01DX001 (ip), vehicle: saline) 98 % of control; under setting [4], 104 % of control; under setting [5], 98 % of control; under setting [9], 92 % of control.
Regarding `O=NN(CCCl)C(=O)NC1Cc2ccccc2C1`, the T/C reads like this: (dose: 8.0 mg/kg/injection, schedule: Q01DX001 (ip), vehicle: other) 109 % of control; (dose: 62.0 mg/kg/injection, schedule: Q01DX001 (ip), vehicle: other) 239 % of control; (dose: 125.0 mg/kg/injection, schedule: Q01DX001 (ip), vehicle: other) 264 % of control; (dose: 250.0 mg/kg/injection, schedule: Q01DX001 (ip), vehicle: other) 112 % of control; (dose: 500.0 mg/kg/injection, schedule: Q01DX001 (ip), vehicle: other) 86 % of control.
In the case of `Cc1ccnc([N+](=O)[O-])c1`, the T/C was 103 % of control under setting [12], 92 % of control under setting [13] and 106 % of control under setting [14].
